Experimental data published in BindingDB's records for doi:10.3109/14756366.2010.543420 (Shanghai Institute of Material Medica, Chinese Academy of …, 2011).

molecular target: Beta-secretase 1 (Homo sapiens, UniProt P56817); assay: Biochemical Assay; conditions: pH 4.5; 37 °C
Procedure: Briefly, the assay was carried out by incubation of the substrate peptide (5 μM), BACE1 enzyme (550 ng/mL) that was expressed and purified from insect expression system and varied concentrations of compounds at pH 4.5. After 1 h incubation at 37°C, stop buffer (3 M sodium acetate) was introduced into the reaction mixture to stop the reaction. Finally, the fluorescence intensity was measured on a TECAN GENios reader (Tecan) at room temperature with excitation at 420 nm and emission at 530 nm.

Sequence of Beta-secretase 1 (P56817 whole entry): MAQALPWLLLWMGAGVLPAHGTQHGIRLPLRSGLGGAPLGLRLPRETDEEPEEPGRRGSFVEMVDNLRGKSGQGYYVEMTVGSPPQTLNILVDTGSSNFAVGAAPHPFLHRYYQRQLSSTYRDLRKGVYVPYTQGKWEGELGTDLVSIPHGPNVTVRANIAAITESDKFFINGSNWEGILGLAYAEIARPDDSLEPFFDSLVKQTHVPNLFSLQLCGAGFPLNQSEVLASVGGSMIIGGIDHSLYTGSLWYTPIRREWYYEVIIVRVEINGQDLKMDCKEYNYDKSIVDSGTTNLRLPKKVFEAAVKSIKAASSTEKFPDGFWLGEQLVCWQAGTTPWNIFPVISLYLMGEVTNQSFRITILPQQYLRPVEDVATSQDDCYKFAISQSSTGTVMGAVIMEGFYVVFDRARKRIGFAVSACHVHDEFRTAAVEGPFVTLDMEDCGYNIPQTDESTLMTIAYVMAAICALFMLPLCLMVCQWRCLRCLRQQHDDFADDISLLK

SMILES	IC50 [µM]
O=C(/C=C/c1ccccc1O)c1ccccc1O	> 60
O=C(/C=C/c1ccccc1O)c1cc(O)ccc1O	41.8
C=CCOc1ccccc1/C=C/C(=O)c1ccc(O)cc1O	> 60
O=C(/C=C/c1ccccc1Cl)c1ccc(O)cc1O	11.4
O=C(/C=C/c1ccccc1O)c1ccc(O)cc1O [2,2'',4''-Trihydroxychalcone]	2.45
O=C(/C=C/c1ccc(O)cc1O)c1ccc(O)cc1O [2,2',4,4'-tetrahydroxychalcone]	0.62
O=C(/C=C/c1ccccc1O)c1cccc(O)c1O [(E)-1-(2,3-dihydroxyphenyl)-3-(2-hydroxyphenyl)-2-propen-1-one (12)]	21.8
O=C(/C=C/c1cccc(O)c1O)c1ccc(O)cc1O [(E)-1-(2,4-dihydroxyphenyl)-3-(2,3-dihydroxyphenyl)-2-propen-1-one (17)]	0.27
O=C(/C=C/c1cc(O)ccc1O)c1ccc(O)cc1O [(E)-1-(2,4-dihydroxyphenyl)-3-(2,5-dihydroxyphenyl)-2-propen-1-one (19)]	1.94
O=C(/C=C/c1c(O)cccc1O)c1ccc(O)cc1O [(E)-1-(2,4-dihydroxyphenyl)-3-(2,6-dihydroxyphenyl)-2-propen-1-one (20)]	1.71
COc1ccccc1/C=C/C(=O)c1ccc(O)cc1O [(E)-1-(2,4-dihydroxyphenyl)-3-(2-methoxyphenyl)-2-propen-1-one (4)]	2.63

Second part, the compound after the results:

IC50 [µM]	SMILES
> 60	O=C(/C=C/c1ccccc1[N+](=O)[O-])c1ccc(O)cc1O [(E)-1-(2,4-dihydroxyphenyl)-3-(2-nitrophenyl)-2-propen-1-one (7)]
2.08	O=C(/C=C/c1cc(O)cc(O)c1)c1ccc(O)cc1O [(E)-1-(2,4-dihydroxyphenyl)-3-(3,5-dihydroxyphenyl)-2-propen-1-one (22)]
15.6	O=C(/C=C/c1ccccc1O)c1c(O)cccc1O [(E)-1-(2,6-dihydroxyphenyl)-3-(2-hydroxyphenyl)-2-propen-1-one (14)]
11.8	O=C(/C=C/c1ccccc1O)c1ccc(O)c(O)c1 [(E)-1-(3,4-dihydroxyphenyl)-3-(2-hydroxyphenyl)-2-propen-1-one (15)]
19.4	O=C(/C=C/c1ccccc1O)c1cc(O)cc(O)c1 [(E)-1-(3,5-dihydroxyphenyl)-3-(2-hydroxyphenyl)-2-propen-1-one (16)]
30.4	O=C(/C=C/c1ccccc1O)c1cccc(O)c1 [(E)-1-(3-hydroxyphenyl)-3-(2-hydroxyphenyl)-2-propen-1-one (10)]
58.1	O=C(/C=C/c1ccccc1O)c1ccc(O)cc1 [(E)-1-(4-hydroxyphenyl)-3-(2-hydroxyphenyl)-2-propen-1-one (11)]
8.03	O=C(/C=C/c1cccc(O)c1)c1ccc(O)cc1O [(E)-3,2'',4''-Trihydroxychalcone]
2.37	O=C(/C=C/c1ccc(O)c(O)c1)c1ccc(O)cc1O [(E)-3-(3,4-Dihydroxy-phenyl)-1-(2,4-dihydroxy-phenyl)-propenone]
> 60	O=C(/C=C/c1ccccc1O)c1ccccc1 [Chalcone, 1]
